Results taken from patent publication US4452986A, “Imidazolyl-substituted benzofurans” (The Upjohn Company, priority 1982, dated 1984).
Structures can show the parent of a compound that is named as a salt.

Molecular target: T1, TXA2 synthetase (human platelet microsomes) (Homo sapiens, UniProt P24557)
T1 construct: human platelet microsomes (HPM); from tissue; host or cells: human platelets (microsomes)
T1 sequence (P24557 1-533): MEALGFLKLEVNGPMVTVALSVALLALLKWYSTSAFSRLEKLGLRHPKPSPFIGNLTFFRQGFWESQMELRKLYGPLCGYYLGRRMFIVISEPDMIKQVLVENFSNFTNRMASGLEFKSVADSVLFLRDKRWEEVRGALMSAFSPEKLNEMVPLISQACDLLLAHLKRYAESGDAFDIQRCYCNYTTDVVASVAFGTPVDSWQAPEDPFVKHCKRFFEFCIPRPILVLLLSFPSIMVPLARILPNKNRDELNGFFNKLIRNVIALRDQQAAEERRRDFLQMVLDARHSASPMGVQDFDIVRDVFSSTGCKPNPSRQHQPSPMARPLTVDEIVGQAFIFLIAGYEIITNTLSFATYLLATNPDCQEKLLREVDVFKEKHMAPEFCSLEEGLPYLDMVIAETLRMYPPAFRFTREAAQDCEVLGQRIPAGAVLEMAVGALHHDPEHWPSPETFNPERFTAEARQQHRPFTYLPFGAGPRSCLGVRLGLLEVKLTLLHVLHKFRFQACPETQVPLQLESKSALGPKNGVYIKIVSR
Experiment: TXA2 inhibition test: TXA2 generated from PGH2 with human platelet microsomes, response of superfused rabbit aortic strips
Format: biochemical
Conditions: human platelet microsomes + PGH2, rabbit aorta bioassay
Procedure: The compounds of the present invention were tested for TXA2 inhibition as follows:
Rabbit aortic strips were superfused in series with Krebs solution. Thromboxane A2 (TXA2) was generated by mixing prostaglandin H2 (PGH2) with human platelet microsomes (HPM).
Potential inhibitors were tested by comparing the response of the rabbit aorta to the amount of TXA2 produced by mixing PGH2 and HPM without the test compound in the reaction medium and then the amount of TXA2 produced when the test compound was added to the HPM 5 minutes before the HPM was mixed with PGH2. […] For a discussion of TXA2 synthetase inhibition testing see, e.g., R. Gorman, supra.

effectiveness in inhibiting TXA2 formation (rank among tested compounds): most effective
Compound: O=C(O)c1cc2cc(Cn3ccnc3)ccc2o1 [Example 3, 5-N-Imidazolylmethyl-benzofuran-2-carboxylic Acid, Sodium Salt]
